The source of these data is US20150119601A1, “MONOFUNCTIONAL MCR + 3-HP DEHYDROGENASE” (OPX Biotechnologies, Inc., priority 2013, published 2015).

Where two headings read alike, the source gives them in different places.

The subject of series [1] is E. coli strains. Briefly: Growth inhibition of E. coli strains by 3-HP. Type of series: cell-based. The note with it: E. coli strains grown in the presence of 3-HP.
The target of series [2] is E. coli ACCase (Escherichia coli, UniProt P0A9Q5+P0ABD5+P0ABD8+P24182). The settings on record: for inhibition of E. coli ACCase by the salts: FIG. 4; for decrease of ACCase enzyme activity: relative to control (FIG. 4). As to the method:
Levels of greater than 0.66M (60 g/L) are expected to be present for commercially viable commercial production of 3-HP.
Each gene was amplified by PCRs with Pfu Ultra II HS using the manufacturer's instructions, and the PCR products were purified using the Zymo PCR Cleanup kit. Concentrations of products were measured using the Nanodrop spectophotometer. The Gibson Assembly kit (NEB) was used to construct plasmids expressing the ACCase subunit genes as directed by the manufacturer. The effect of NH4-3-HP and NH4Cl on H. elongata ACCase was tested and compared to the E. coli ACCase.

In series [3] the test system is H. elongata ACCase. Nature of the series: Salt effect on H. elongata ACCase compared to E. coli ACCase. Type of series: biochemical, Halomonas elongata. The settings on record: FIG. 4. The protocol: Concentrations of products were measured using the Nanodrop spectophotometer.
The mark [4] stands for this setting: salts of 3-HP levels near 0.66M.

E. coli ACCase, sequence (P0ABD5 whole entry): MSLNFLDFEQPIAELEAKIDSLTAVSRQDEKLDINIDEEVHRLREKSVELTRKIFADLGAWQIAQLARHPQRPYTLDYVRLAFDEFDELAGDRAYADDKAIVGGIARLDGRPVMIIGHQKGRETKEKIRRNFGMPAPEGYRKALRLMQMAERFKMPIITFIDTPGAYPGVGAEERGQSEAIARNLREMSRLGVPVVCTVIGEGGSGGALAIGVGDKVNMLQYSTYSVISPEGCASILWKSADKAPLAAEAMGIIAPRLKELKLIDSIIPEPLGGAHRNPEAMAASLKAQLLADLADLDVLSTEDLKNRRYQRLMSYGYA
E. coli ACCase, sequence (P0A9Q5 whole entry): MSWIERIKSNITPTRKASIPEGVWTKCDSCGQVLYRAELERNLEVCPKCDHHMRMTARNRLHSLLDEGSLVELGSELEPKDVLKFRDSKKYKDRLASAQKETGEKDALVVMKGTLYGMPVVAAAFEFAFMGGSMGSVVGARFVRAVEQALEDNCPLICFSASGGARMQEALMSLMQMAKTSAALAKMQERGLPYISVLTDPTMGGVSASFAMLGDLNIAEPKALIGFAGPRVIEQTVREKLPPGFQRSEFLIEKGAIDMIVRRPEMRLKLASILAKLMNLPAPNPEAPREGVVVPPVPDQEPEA

On to `O=C(O)CCO` [3-HP, 3-hydroxypropionic acid], for which, in series [1], the “3-HP level at which growth inhibition is demonstrated” value is listed as no less than 20 g/L. On to `N.O=C(O)CCO` [NH4-3-HP], for which, in series [2], the “inhibition of E. coli ACCase by the salts” value was “significantly inhibited”. Moreover, the “decrease of ACCase enzyme activity” value in series [2] (setting [4]) is given as “approximately 80%”. The “effect of the salts on ACCase from the halophile” value in series [3] is reported as “less affected”. As to `Cl.N` [NH4Cl], in series [2], the “inhibition of E. coli ACCase by the salts” value is “significantly inhibited”. Besides, the “decrease of ACCase enzyme activity” value in series [2] (salt levels near 0.44M) is on record as “approximately 80%”. In addition, the “effect of the salts on ACCase from the halophile” value in series [3] is “less affected”.

For `O=C([O-])CCO.[Na+]` [Na-3-HP], the “decrease of ACCase enzyme activity” value in series [2] (setting [4]) is “approximately 80%”. Consider `[Cl-].[Na+]` [NaCl], for which the “decrease of ACCase enzyme activity” value in series [2] (salt levels near 0.44M) is given as “approximately 80%”.
